Test results as given in patent publication US10806717B2, “Methods and compositions for improving cognitive function” (The Johns Hopkins University, priority 2013, dated 2020).

Tests used:
[1] = system: Age-Impaired (AI) Long-Evans rats; assay: Morris Water Maze retention trial, levetiracetam i.p.; format: in vivo, rat
Experimental: The MWM apparatus consists of a large, circular pool (diameter 1.53 m; height, 0.58 m) filled with water (27° C.) that is made opaque through the addition of non-toxic pigment or some other substance. In the typical “hidden platform” version of the test, rats are trained to find a camouflaged white escape platform (height, 34.5 cm) that is positioned in the center of one quadrant of the maze about 1.0 cm below the water surface. This platform can be retracted to the bottom of the tank or raised to its normal position from outside the maze during behavioral testing. The location of the platform remains constant from trial to trial. Because there are no local cues that mark the position of the platform, the rat's ability to locate it efficiently from any starting position at the perimeter of the pool depends on using information surrounding the maze. The maze is surrounded by black curtains to which white patterns are affixed to provide a configuration of spatial cues. A second platform (height 37.5 cm), with its surface painted black is elevated 2 cm above the water surface during cue training to control for factors unrelated to cognition. The behavior of a rat in the pool is recorded by a camera that is suspended 2.5 m above the center of the pool. The camera is connected to a video tracking system (HVS Image Advanced Tracker VP200) and a PC computer running HVS software developed by Richard Baker of HVS Image, Hampton, UK. Six Age-Impaired (AI) Long-Evans rats (as characterized above) were tested for their memory of new spatial information in the MWM, under different drug/control treatment conditions (vehicle control and two different dosage levels of levetiracetam). The MWM protocol was substantially the same as the one described in Example 1. Specifically for this study, a retention trial was performed after the training trials, as described below. AI rats were given six training trials per training day with a 60-sec inter-trial interval between each training trial for two consecutive days. […]

[2] = biological target: synaptic vesicle protein 2A (SV2A) (Homo sapiens, UniProt Q7L0J3); conditions: specific site in the CNS; cited from earlier work
[3] = cited from earlier work
[4] = levetiracetam 10 mg/kg/day i.p.

Chain of synaptic vesicle protein 2A (SV2A) (Q7L0J3 whole entry, species assumed): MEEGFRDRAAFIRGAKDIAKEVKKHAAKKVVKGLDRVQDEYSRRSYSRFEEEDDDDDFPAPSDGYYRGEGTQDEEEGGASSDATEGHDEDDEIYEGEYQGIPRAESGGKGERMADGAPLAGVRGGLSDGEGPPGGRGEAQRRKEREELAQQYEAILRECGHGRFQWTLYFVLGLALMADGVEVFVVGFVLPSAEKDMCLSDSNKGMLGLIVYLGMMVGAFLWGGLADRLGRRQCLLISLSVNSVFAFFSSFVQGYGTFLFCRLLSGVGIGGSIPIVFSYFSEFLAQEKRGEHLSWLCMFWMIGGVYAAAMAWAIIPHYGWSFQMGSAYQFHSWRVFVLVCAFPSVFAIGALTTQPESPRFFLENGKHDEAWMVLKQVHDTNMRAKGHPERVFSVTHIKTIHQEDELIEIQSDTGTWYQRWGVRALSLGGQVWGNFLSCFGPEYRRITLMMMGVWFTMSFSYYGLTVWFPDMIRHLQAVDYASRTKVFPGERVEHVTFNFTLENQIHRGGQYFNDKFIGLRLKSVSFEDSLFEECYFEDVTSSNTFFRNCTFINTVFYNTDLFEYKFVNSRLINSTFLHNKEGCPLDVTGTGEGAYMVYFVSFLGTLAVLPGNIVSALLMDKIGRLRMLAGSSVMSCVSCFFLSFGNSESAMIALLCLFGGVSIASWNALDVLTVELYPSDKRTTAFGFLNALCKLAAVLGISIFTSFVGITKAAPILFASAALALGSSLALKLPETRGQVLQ

Structure (SMILES): CC[C@@H](C(N)=O)N1CCCC1=O [levetiracetam, (2S)-2-(2-oxopyrrolidin-1-yl)butanamide]
- memory performance (time in target quadrant) compared to vehicle ([1]; levetiracetam 5 mg/kg/day i.p.): did not significantly improve
- memory performance (time in target quadrant) compared to vehicle [1, 4]: significantly improved memory
- time spent in the target annulus [1, 4]: effectivness of the 10 mg/kg/day levetiracetam treatment was also seen
- binding to SV2A [2]: binds
- absorption ([3]; after oral administration): rapidly and almost completely absorbed
- Plasma half-life expected in elderly ([3]; elderly, due to decreased renal function): 9 to 10 h
- time of peak plasma concentrations ([3]; following oral administration): about 1 hour
- Plasma half-life ([3]; in vivo): approximately 7±1 hour
- time to steady state ([3]; multiple twice-daily dosing): 2 days
- effect of food on bioavailability ([3]; oral): not affected by food
